Measurements as given in ChEMBL document CHEMBL4177611, “Discovery of aminocyclohexene analogues as selective and orally bioavailable hNav1.7 inhibitors for analgesia” (Bioorg Med Chem Lett, 2017).

Tests used:
[1] = Initial plasma concentration in Sprague-Dawley rat at 3 mg/kg administered as single iv bolus by LC-MS/MS analysis; format: ADME, organism-based
[2] = Volume of distribution at steady state in Sprague-Dawley rat at 3 mg/kg administered as single iv bolus by LC-MS/MS analysis; format: ADME, organism-based; conditions: in vivo, read-out: Vdss
[3] = AUC (0 to last) in Sprague-Dawley rat at 3 mg/kg administered as single iv bolus by LC-MS/MS analysis; format: ADME, organism-based; design: dose 3 mg/kg, route intravenous, time 0 - last; conditions: in vivo
[4] = Drug metabolism in po dosed rat plasma assessed as deethylation by measuring 4-(((1R,6R)-6-amino-2-(4-fluorophenyl)cyclohex-2-enyl)methoxy)-5-chloro-2-fluoro-N-(thiazol-4-yl)benzenesulfonamide metabolite formation; format: ADME, organism-based; conditions: in vivo
[5] = Half life in Sprague-Dawley rat at 3 mg/kg administered as single iv bolus by LC-MS/MS analysis; format: ADME, organism-based; conditions: in vivo
[6] = molecular target: Sodium channel protein type 5 subunit alpha (Homo sapiens, UniProt Q14524); assay: Inhibition of human Nav1.5 expressed in HEK293 cells at -120 mV holding potential incubated over 5 mins measured at 15 secs interval by Qpatch clamp assay; format: cell-based
Sequence of Sodium channel protein type 5 subunit alpha (Q14524 whole entry): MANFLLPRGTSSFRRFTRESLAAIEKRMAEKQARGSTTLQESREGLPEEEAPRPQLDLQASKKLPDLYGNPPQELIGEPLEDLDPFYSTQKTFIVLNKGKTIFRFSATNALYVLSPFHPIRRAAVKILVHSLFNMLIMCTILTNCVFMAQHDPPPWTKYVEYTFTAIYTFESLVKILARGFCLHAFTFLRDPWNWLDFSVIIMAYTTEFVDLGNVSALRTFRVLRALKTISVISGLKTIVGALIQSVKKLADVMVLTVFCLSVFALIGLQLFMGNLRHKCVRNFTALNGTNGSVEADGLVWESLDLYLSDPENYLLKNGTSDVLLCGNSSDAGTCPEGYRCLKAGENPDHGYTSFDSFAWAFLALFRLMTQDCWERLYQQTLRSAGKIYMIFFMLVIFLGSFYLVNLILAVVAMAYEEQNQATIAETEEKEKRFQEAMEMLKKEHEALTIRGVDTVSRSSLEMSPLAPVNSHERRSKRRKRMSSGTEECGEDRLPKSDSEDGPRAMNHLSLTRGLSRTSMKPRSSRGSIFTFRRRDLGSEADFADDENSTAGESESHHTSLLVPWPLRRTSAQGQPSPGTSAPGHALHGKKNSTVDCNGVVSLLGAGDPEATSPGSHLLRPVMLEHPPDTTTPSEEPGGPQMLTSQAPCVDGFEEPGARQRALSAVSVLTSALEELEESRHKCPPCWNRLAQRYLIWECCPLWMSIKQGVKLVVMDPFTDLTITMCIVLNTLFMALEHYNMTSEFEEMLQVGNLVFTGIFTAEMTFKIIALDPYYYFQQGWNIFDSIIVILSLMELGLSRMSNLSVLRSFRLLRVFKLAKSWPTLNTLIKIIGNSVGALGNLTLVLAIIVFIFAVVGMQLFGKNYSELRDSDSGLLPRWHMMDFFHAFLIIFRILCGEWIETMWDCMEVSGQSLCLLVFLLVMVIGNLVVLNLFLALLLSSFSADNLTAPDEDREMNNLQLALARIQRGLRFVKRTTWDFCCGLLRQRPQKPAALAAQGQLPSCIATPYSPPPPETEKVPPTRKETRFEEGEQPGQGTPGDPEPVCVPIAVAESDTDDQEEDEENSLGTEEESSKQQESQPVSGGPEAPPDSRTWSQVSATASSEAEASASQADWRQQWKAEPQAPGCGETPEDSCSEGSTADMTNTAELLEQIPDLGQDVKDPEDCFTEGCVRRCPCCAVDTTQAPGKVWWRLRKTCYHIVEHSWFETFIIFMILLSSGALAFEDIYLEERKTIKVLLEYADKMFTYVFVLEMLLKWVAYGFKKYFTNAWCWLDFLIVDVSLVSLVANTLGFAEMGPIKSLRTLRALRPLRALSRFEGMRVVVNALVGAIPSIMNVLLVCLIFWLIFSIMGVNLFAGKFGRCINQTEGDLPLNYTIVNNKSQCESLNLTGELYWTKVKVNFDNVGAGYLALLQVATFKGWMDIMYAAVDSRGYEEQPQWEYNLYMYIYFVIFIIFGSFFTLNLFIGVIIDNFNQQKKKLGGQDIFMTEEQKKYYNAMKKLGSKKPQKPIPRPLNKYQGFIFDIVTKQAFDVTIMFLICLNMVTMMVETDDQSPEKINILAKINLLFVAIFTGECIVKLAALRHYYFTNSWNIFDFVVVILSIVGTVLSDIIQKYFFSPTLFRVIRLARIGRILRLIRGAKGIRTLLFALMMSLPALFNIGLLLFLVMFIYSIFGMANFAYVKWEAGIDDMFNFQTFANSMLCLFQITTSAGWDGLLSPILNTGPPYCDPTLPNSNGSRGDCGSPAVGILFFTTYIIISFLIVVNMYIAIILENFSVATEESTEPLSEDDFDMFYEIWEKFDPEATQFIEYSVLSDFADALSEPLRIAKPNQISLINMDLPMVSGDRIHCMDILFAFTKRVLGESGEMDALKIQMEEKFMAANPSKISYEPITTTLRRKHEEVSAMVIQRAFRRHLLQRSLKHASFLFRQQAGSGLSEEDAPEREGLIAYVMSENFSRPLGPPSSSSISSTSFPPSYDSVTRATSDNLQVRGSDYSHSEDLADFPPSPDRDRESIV

[7] = Plasma concentration in Sprague-Dawley rat spinal nerve ligation model at 100 mg/kg administered as single dose via oral gavage measured after 2 hrs by LC-MS/MS analysis; format: ADME, organism-based
[8] = Plasma concentration in Sprague-Dawley rat spinal nerve ligation model at 30 mg/kg administered as single dose via oral gavage measured after 1 hr by LC-MS/MS analysis; format: ADME, organism-based
[9] = Clearance in Sprague-Dawley rat administered as single iv bolus by LC-MS/MS analysis; format: ADME, organism-based; conditions: in vivo
[10] = Drug metabolism in human liver microsomes assessed as dealkylation by measuring M1 metabolite formation at 10 uM measured up to 60 mins in presence of NADPH by LC-MS analysis relative to total metabolite peak area; format: ADME, microsome; conditions: 1 h
[11] = Unbound plasma concentration in Sprague-Dawley rat spinal nerve ligation model at 100 mg/kg administered as single dose via oral gavage measured after 1 hr by LC-MS/MS analysis; format: ADME, organism-based; conditions: in vivo
[12] = AUC in Sprague-Dawley rat at 10 mg/kg administered as single dose via oral gavage by LC-MS/MS analysis; format: ADME, organism-based; conditions: in vivo
[13] = Intrinsic clearance in human liver microsomes at 1 uM after 60 mins in presence of NADPH by LC-MS/MS analysis; format: ADME, microsome; conditions: read-out: CLH
[14] = molecular target: Sodium channel protein type 4 subunit alpha (Homo sapiens, UniProt P35499); format: ADME
Sequence of Sodium channel protein type 4 subunit alpha (P35499 whole entry): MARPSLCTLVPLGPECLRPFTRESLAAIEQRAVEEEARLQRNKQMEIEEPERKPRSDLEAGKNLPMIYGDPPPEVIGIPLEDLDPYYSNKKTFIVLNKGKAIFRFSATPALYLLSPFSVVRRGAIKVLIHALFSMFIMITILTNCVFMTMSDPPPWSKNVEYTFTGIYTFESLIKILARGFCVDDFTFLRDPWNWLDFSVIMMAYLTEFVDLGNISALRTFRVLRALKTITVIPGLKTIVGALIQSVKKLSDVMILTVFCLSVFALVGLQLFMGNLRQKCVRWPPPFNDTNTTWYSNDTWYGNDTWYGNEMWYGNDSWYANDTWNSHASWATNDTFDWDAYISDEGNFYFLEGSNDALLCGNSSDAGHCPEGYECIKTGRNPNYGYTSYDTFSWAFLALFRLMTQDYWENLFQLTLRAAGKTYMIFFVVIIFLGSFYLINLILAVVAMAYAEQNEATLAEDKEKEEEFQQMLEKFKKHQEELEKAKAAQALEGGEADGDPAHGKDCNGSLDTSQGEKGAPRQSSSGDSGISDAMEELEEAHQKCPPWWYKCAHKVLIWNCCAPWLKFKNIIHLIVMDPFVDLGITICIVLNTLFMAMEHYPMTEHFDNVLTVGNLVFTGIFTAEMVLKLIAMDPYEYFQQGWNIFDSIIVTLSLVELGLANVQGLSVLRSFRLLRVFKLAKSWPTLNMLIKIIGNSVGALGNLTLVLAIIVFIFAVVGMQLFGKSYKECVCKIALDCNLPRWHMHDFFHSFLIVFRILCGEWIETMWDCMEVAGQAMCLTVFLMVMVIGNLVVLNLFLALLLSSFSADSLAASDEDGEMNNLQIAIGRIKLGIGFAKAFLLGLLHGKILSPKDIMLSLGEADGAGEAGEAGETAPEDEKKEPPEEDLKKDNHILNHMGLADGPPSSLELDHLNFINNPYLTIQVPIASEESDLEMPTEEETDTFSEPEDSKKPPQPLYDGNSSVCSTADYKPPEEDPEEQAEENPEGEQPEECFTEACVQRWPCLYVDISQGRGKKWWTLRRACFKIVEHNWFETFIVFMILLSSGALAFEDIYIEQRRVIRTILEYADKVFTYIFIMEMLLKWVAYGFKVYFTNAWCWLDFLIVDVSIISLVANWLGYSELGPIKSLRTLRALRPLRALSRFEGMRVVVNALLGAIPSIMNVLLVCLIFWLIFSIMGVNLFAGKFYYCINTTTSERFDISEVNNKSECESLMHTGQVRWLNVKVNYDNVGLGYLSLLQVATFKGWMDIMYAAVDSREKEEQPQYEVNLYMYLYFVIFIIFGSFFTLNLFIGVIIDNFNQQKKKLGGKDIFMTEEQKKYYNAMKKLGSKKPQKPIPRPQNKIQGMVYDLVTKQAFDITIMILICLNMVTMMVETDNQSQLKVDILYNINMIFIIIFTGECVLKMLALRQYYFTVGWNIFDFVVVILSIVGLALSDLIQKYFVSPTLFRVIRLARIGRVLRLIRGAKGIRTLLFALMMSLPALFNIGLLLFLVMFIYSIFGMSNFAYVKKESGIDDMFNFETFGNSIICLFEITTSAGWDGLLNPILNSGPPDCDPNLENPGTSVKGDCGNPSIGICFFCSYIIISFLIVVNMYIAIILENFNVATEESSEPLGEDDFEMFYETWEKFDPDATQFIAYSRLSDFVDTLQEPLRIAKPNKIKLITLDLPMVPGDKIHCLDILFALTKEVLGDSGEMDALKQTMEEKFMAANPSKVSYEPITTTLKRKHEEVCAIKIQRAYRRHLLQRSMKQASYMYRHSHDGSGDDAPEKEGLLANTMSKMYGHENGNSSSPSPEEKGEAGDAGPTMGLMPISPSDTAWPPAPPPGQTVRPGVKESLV

[15] = AUC (0 to last) in Sprague-Dawley rat at 10 mg/kg administered as single dose via oral gavage by LC-MS/MS analysis; format: ADME, organism-based; design: dose 10 mg/kg, route oral, time 0 - last; conditions: in vivo

In the case of `CCN[C@@H]1CCC=C(c2ccc(F)cc2)[C@H]1COc1cc(F)c(S(=O)(=O)Nc2cscn2)cc1Cl.Cl`, the C0 [1] is reported as 1.91 µM, the Vd [2] is reported as 4.63 L/kg and the AUC(0-t) [3] is reported as 2.44 µM·h. For the same compound, the Drug metabolism [4] was “Metabolite_Detected”, the half-life [5] was 1.56 h and the IC50 [6] was over 10 µM. For the same compound, the concentration at 2 h [7] was 7.5 µM, the concentration at 1 h [8] was 2.01 µM and the clearance [9] was 2.22 L/h/kg. For the same compound, the Drug metabolism [10] was “Metabolite_Detected”, the “Cp(f)” value [11] was 0.297 µM and the AUC [12] was 3.04 µM·h. It also gave a CLint scaled at 1 µM [13] of 4.01 L/h/kg, an IC50 [14] of 25.2 µM and an AUC(0-t) [15] of 3.04 µM·h.
